In patent US20260092179A1, “GENETICALLY MODIFIED HOST CELLS PRODUCING VIOLACEIN, ANALOGUES, AND DERIVATIVES THEREOF” (OCTARINE BIO APS, priority 2022, published 2026):

Legend:
[1] = Alkaline pH stability of dyed fabrics (colour fastness, ΔE); type: physicochemical; conditions: pH 8 with NaOH
Description: (§1) In order to assess the stability and colour fastness of violacein and violacein derivatives dyed onto fabrics, dyed fabrics were subjected to a number of conditions. Fabrics were dyed according to Example 18 and colour coordinates and colour change before and after exposure to a given condition were determined as described in Example 18. To measure temperature stability, fabrics were incubated in an oven set to 80° c. for 4 h. To measure stability under acid and alkaline conditions, fabrics were fully submerged in water solutions set to pH 8 with NaOH and pH 5 with HCl and incubated at room temperature for 30 minutes. Fabrics were then incubated at 37° c. for 4 h. To measure stability during laundering, fabrics were washed at 30° c. under the “mix” setting of a Siemens IQ300 washing machine, then dried in a Siemens IQ300 dryer until dry. To measure artificial light stability, fabrics were placed under an LED lamp at room temperature for 16 h. To measure UV light stability, fabrics were placed under a UV lamp at room temperature for 1 h.

[2] = Temperature stability of dyed fabrics (colour fastness, ΔE); type: physicochemical; conditions: oven 80° c. for 4 h; for ΔE: before and after the stability test
Description: as §1

[3] = Stability during laundering of dyed fabrics (colour fastness, ΔE); type: physicochemical; conditions: washed at 30° c.
Description: as §1

S. cerevisiae S228c = test: Antimicrobial activity of dyed Nylon 6,6 fabric: final OD600 and % inhibition; type: cell-based
Description: (§2) Violacein is reported as being a potent antibiotic, capable of inhibiting the growth of a wide range of microbial kingdoms including bacteria, yeast, fungi, viruses, protozoa and nematode. […] To test this, overnight cultures of wild-type E. coli DH5a and S. cerevisiae S228c strains were diluted in 5 mL of cultivation media (LB for E. coli, minimal media for S. cerevisiae) to a starting OD600 of 0.1. 1.5×1.5 cm dyed Nylon 6,6 fabric strips were sterilized by submerging in 75% ethanol for 15 mins and air drying in a laminar air flow hood before adding to each culture (with undyed Nylon 6,6 fabric as a negative control). […] This experiment provides evidence that all violacein derivatives display antimicrobial properties.

E. coli DH5a = test: as above; type: cell-based
Description: as §2

[4] = Acrylic, before and after the stability test
[5] = Bleached cotton, before and after the stability test
[6] = Diacetate, before and after the stability test
[7] = Nylon 6,6, before and after the stability test
[8] = Polyester, before and after the stability test
[9] = Wool, before and after the stability test

O=C1N=C(c2c[nH]c3ccc(O)cc23)C=C1c1c[nH]c2ccccc12 [proviolacein]
L ([1]; Acrylic, After test): 58.76 | a ([1]; Acrylic, After test): −2.16 | b ([1]; Acrylic, After test): 3.85 | L ([1]; Acrylic, Before test): 57.87 | a ([1]; Acrylic, Before test): −0.46 | b ([1]; Acrylic, Before test): 1.91 | ΔE [1, 4]: 2.73 | L ([1]; Bleached cotton, After test): 64.37 | a ([1]; Bleached cotton, After test): 2.22 | b ([1]; Bleached cotton, After test): 2.08 | L ([1]; Bleached cotton, Before test): 63.78 | a ([1]; Bleached cotton, Before test): 2.31 | b ([1]; Bleached cotton, Before test): 1.4 | ΔE [1, 5]: 0.90 | L ([1]; Diacetate, After test): 61.54 | a ([1]; Diacetate, After test): 3.25 | b ([1]; Diacetate, After test): 6.78 | L ([1]; Diacetate, Before test): 60.55 | a ([1]; Diacetate, Before test): 3.12 | b ([1]; Diacetate, Before test): 6.29 | ΔE [1, 6]: 1.11 | L ([1]; Nylon 6,6, After test): 50.89 | a ([1]; Nylon 6,6, After test): −1.8 | b ([1]; Nylon 6,6, After test): −3.04 | L ([1]; Nylon 6,6, Before test): 52.98 | a ([1]; Nylon 6,6, Before test): −2.5 | b ([1]; Nylon 6,6, Before test): −3.65 | ΔE [1, 7]: 2.29 | L ([1]; Polyester, After test): 64.69 | a ([1]; Polyester, After test): −1.03 | b ([1]; Polyester, After test): −0.34 | L ([1]; Polyester, Before test): 64.55 | a ([1]; Polyester, Before test): −2.15 | b ([1]; Polyester, Before test): 1.47 | ΔE [1, 8]: 2.13 | L ([1]; Wool, After test): 65.28 | a ([1]; Wool, After test): −1.97 | b ([1]; Wool, After test): 5.42 | L ([1]; Wool, Before test): 65.56 | a ([1]; Wool, Before test): −2.33 | b ([1]; Wool, Before test): 7.35 | ΔE [1, 9]: 1.98 | L ([2]; Acrylic, After test): 58.24 | a ([2]; Acrylic, After test): −0.6 | b ([2]; Acrylic, After test): 1.57 | L ([2]; Acrylic, Before test): 56.45 | a ([2]; Acrylic, Before test): −2.01 | b ([2]; Acrylic, Before test): 2.1 | ΔE ([2]; Acrylic): 2.34 | L ([2]; Bleached cotton, After test): 61.95 | a ([2]; Bleached cotton, After test): 1.2 | b ([2]; Bleached cotton, After test): 2.46 | L ([2]; Bleached cotton, Before test): 62.46 | a ([2]; Bleached cotton, Before test): 0.6 | b ([2]; Bleached cotton, Before test): 2.51 | ΔE ([2]; Bleached cotton): 0.79 | L ([2]; Diacetate, After test): 59.98 | a ([2]; Diacetate, After test): 5.39 | b ([2]; Diacetate, After test): 6.04 | L ([2]; Diacetate, Before test): 61.94 | a ([2]; Diacetate, Before test): 4.17 | b ([2]; Diacetate, Before test): 5.25 | ΔE ([2]; Diacetate): 2.44 | L ([2]; Nylon 6,6, After test): 49.91 | a ([2]; Nylon 6,6, After test): −1.59 | b ([2]; Nylon 6,6, After test): −4 | L ([2]; Nylon 6,6, Before test): 50.83 | a ([2]; Nylon 6,6, Before test): −2.09 | b ([2]; Nylon 6,6, Before test): −3.92 | ΔE ([2]; Nylon 6,6): 1.05 | L ([2]; Polyester, After test): 62.77 | a ([2]; Polyester, After test): −0.52 | b ([2]; Polyester, After test): 1.37 | L ([2]; Polyester, Before test): 64.1 | a ([2]; Polyester, Before test): −1.81 | b ([2]; Polyester, Before test): 1.31 | ΔE ([2]; Polyester): 1.85 | L ([2]; Wool, After test): 64.23 | a ([2]; Wool, After test): 0.18 | b ([2]; Wool, After test): 4.96 | L ([2]; Wool, Before test): 65.67 | a ([2]; Wool, Before test): −0.22 | b ([2]; Wool, Before test): 4.25 | ΔE ([2]; Wool): 1.65 | L ([3]; Acrylic, After test): 67.87 | a ([3]; Acrylic, After test): −1.12 | b ([3]; Acrylic, After test): 2.23 | L ([3]; Acrylic, Before test): 58.81 | a ([3]; Acrylic, Before test): 0.01 | b ([3]; Acrylic, Before test): 1.72 | ΔE [3, 4]: 9.14 | L ([3]; Bleached cotton, After test): 73 | a ([3]; Bleached cotton, After test): 0.55 | b ([3]; Bleached cotton, After test): 1.68 | L ([3]; Bleached cotton, Before test): 65.1 | a ([3]; Bleached cotton, Before test): 1.34 | b ([3]; Bleached cotton, Before test): 3.23 | ΔE [3, 5]: 8.09 | L ([3]; Diacetate, After test): 68.23 | a ([3]; Diacetate, After test): 3.76 | b ([3]; Diacetate, After test): 5.07 | L ([3]; Diacetate, Before test): 62.86 | a ([3]; Diacetate, Before test): 4.96 | b ([3]; Diacetate, Before test): 5.09 | ΔE [3, 6]: 5.50 | L ([3]; Nylon 6,6, After test): 56.92 | a ([3]; Nylon 6,6, After test): −1.51 | b ([3]; Nylon 6,6, After test): −3.83 | L ([3]; Nylon 6,6, Before test): 50.65 | a ([3]; Nylon 6,6, Before test): −1.57 | b ([3]; Nylon 6,6, Before test): −2.84 | ΔE [3, 7]: 6.35 | L ([3]; Polyester, After test): 72.82 | a ([3]; Polyester, After test): −0.46 | b ([3]; Polyester, After test): 0.54 | L ([3]; Polyester, Before test): 65.21 | a ([3]; Polyester, Before test): −1.18 | b ([3]; Polyester, Before test): 1.47 | ΔE [3, 8]: 7.70 | L ([3]; Wool, After test): 72.54 | a ([3]; Wool, After test): −1.14 | b ([3]; Wool, After test): 5.37 | L ([3]; Wool, Before test): 64.87 | a ([3]; Wool, Before test): 0.09 | b ([3]; Wool, Before test): 5 | ΔE [3, 9]: 7.78 | Final OD600 (S. cerevisiae S228c; S. cerevisiae cultured overnight at 30° c. with dyed Nylon 6,6 fabric strip, starting OD600 0.1): 4.39 | % Inhibition (S. cerevisiae S228c; S. cerevisiae, dyed Nylon 6,6 fabric vs undyed fabric control): 18.13% | growth inhibition of S. cerevisiae (S. cerevisiae S228c; dyed Nylon 6,6 fabric strip in culture, overnight 30° c., OD600 versus undyed fabric): most inhibited | Final OD600 (E. coli DH5a; E. coli cultured overnight at 30° c. with dyed Nylon 6,6 fabric strip, starting OD600 0.1): 4.52 | % Inhibition (E. coli DH5a; E. coli, dyed Nylon 6,6 fabric vs undyed fabric control): 13.33%
